Results from the supplement of paper PMC10307832.

Legend:
Assay in all cases: relative viability (nuclei count vs DMSO), 5 days (fraction); higher = more cells survive
Tivantinib + Navitoclax = compound: O=C1NC(=O)[C@@H](c2cn3c4c(cccc24)CCC3)[C@@H]1c1c[nH]c2ccccc12 [Tivantinib] + CC1(C)CCC(c2ccc(Cl)cc2)=C(CN2CCN(c3ccc(C(=O)NS(=O)(=O)c4ccc(N[C@H](CCN5CCOCC5)CSc5ccccc5)c(S(=O)(=O)C(F)(F)F)c4)cc3)CC2)C1 [Navitoclax] (partner 0.5 µM)
In short: (§1)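 Lung cancer cell lines were pin-tool dosed in 1536-well plates on the day after seeding, with either a lone drug or a fixed anchor-drug dose plus five library-drug doses (not always all listed) in √10 steps. Nuclei were counted on 4× images after 5 days. Relative viability is the ratio of treated-well to vehicle-well nuclei counts, with each value a median of duplicate plates.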

Crenolanib + Olaparib = compound: CC1(COc2ccc3c(c2)ncn3-c2ccc3cccc(N4CCC(N)CC4)c3n2)COC1 [Crenolanib] + O=C(c1cc(Cc2n[nH]c(=O)c3ccccc23)ccc1F)N1CCN(C(=O)C2CC2)CC1 [Olaparib] (partner 8 µM)
In short: as §1

Tivantinib + Lapatinib = compound: O=C1NC(=O)[C@@H](c2cn3c4c(cccc24)CCC3)[C@@H]1c1c[nH]c2ccccc12 [Tivantinib] + CS(=O)(=O)CCNCc1ccc(-c2ccc3ncnc(Nc4ccc(OCc5cccc(F)c5)c(Cl)c4)c3c2)o1 [Lapatinib] (partner 2 µM)
In short: as §1

Tivantinib + Palbociclib = compound: O=C1NC(=O)[C@@H](c2cn3c4c(cccc24)CCC3)[C@@H]1c1c[nH]c2ccccc12 [Tivantinib] + CC(=O)c1c(C)c2cnc(Nc3ccc(N4CCNCC4)cn3)nc2n(C2CCCC2)c1=O [Palbociclib] (partner 0.5 µM)
In short: as §1

UMC-11 showed a relative viability (Tivantinib + Navitoclax; first compound 0.01 µM) of 0.316, a relative viability (Tivantinib + Navitoclax; first compound 0.03162 µM) of 0.334 and a relative viability (Tivantinib + Navitoclax; first compound 0.1 µM) of 0.29. For the same cell line, the relative viability (Tivantinib + Navitoclax; first compound 0.3162 µM) was 0.34, the relative viability (Crenolanib + Olaparib; first compound 0.01 µM) was 0.394 and the relative viability (Crenolanib + Olaparib; first compound 0.03162 µM) was 0.35. For the same cell line, the relative viability (Crenolanib + Olaparib; first compound 0.1 µM) was 0.379, the relative viability (Crenolanib + Olaparib; first compound 0.3162 µM) was 0.556 and the relative viability (Crenolanib + Olaparib; first compound 1 µM) was 0.341. It also gave a relative viability (Tivantinib + Lapatinib; first compound 0.01 µM) of 1.03, a relative viability (Tivantinib + Lapatinib; first compound 0.03162 µM) of 0.673 and a relative viability (Tivantinib + Lapatinib; first compound 0.1 µM) of 1.03. For the same cell line, the relative viability (Tivantinib + Lapatinib; first compound 0.3162 µM) was 1.08, the relative viability (Tivantinib + Palbociclib; first compound 0.01 µM) was 0.354 and the relative viability (Tivantinib + Palbociclib; first compound 0.03162 µM) was 0.332. For the same cell line, the relative viability (Tivantinib + Palbociclib; first compound 0.1 µM) was 0.314 and the relative viability (Tivantinib + Palbociclib; first compound 0.3162 µM) was 0.311.
